Patent US4385057A, “Diphenylbutyl-piperazinecarboxamides in pharmaceutical compositions and methods” (priority 1978, dated 1983)
Like-named read-outs stand apart in the source and are kept apart here.

Tests used:
[1] = tested on: mouse-killing behaviour of rats; test: Spontaneous mouse-killing (muricide) by rats; format: in vivo, rat (male hooded Long-Evans); settings: Rattus norvegicus, sc
Source text: For the purpose of detecting new psychotropic substances with antiaggressive properties, pharmacologist have used several different models. […] This form of aggressive behaviour which is considered to be of predatory nature, is physiologically and topographically different from other forms of aggression (M. O'Boyle, Psychol. Bull. 81, 261 (1974)). Mousekilling is a spontaneous behaviour in some rat strains e.g. male hooded Long-Evans rats. Male hooded Long-Evans rats placed in individual cages were used. By testing a number of rats, a colony of rats was obtained that killed a mouse whenever introduced into the rats' cage, by biting the mouse through the cervical spinal cord. Each rat was tested for mouse-killing behaviour (killing a mouse within 5 minutes) prior to each experiment, thus serving as its own positive control. For each dose level 6 positive rats were selected and the test substance was administered by subcutaneous injection. Doses were selected to form a dose-response curve and the mean effective dose (ED50, mg/kg) was calculated by means of linear regression. The rats were tested at 1, and 2 hours after being injected subcutaneously.

[2] = tested on: exploratory activity / climbing of mice; test: Climbing (inability to ascend net-ladder); format: in vivo, mouse (NMRI female); settings: Mus musculus, sc, read-out: ED50, mg/kg, s.c. (dose rendering 50% of the mice incapable of entering the top of the net-ladder)
Procedure: When mice are placed in a new area, they explore the whole available territory. Minor and major tranquillizers inhibit the exploratory activity. The sedative effect of drugs is evaluated by the inability of mice to ascend a netladder. The process of climbing is very complex and consists of psychical and taxic (motor performance) components. For the experiments a transparent cage (36×27×23 cm) and a net-ladder (35×6 cm) standing with an inclination of 45° was used. (P. Kneip. Arch. Int. Pharmacodyn. 76, 238 (1960); F. Sandberg, Arzneimittelforsch. 4, 203 (1959)).
The test compound is administered s.c. (10 ml/kg) to 6 NMRI female mice per dose. The mice are marked with a number code from 1 to 6, in order to recognize each individual mouse. In 25 minutes, 55 minutes, 1 h 55 minutes and 3 h 55 minutes time after the administration the mice are placed in the above-mentioned cage for 10 minutes. The number of mice ascending the top of the net-ladder is noted. Other behavioural items are also noted. The ED50 (mg/kg) reported is the dose rendering 50% of the mice incapable of entering the top of the net-ladder 0.5 h after the administration.

[3] = tested on: acetic acid induced writhing; test: Writhing test (analgetic properties); format: in vivo, mouse (NMRI female); settings: Mus musculus, sc, 20 min before acetic acid i.p.; read-out: ED50, mg/kg, s.c. (dose blocking the writhing behaviour in 50% of the animals)
Procedure: The writhing test is a frequently used test of analgetic properties (L. B. Witkin et al., J. Pharmacol. Exp. Ther. 133, 400 (1961)). If acetic acid (0.5%, 15 ml/kg) is injected intraperitoneally in mice (NMRI) they will without exception develop a writhing behaviour characterized by stretching their hind legs. The drugs to be tested were administered subcutaneously to 6 female mice at each dose 20 min. before the injection of the acetic acid. After 10 min. the behaviour of the mice was studied in 5 min. The ED50 value is the dose blocking the writhing behaviour in 50% of the animals during the 5 min. study period. [drawing 13]

[4] = tested on: isolation-induced aggressive behaviour of male mice; test: Isolation-induced aggressive behaviour; format: in vivo, mouse (male NMR mice); settings: Mus musculus, sc, read-out: ED50, mg/kg, sc (dose inhibiting aggressive behaviour among 50 percent of the pairs)
Source text: Male mice subjected to prolonged isolation develop aggressive behavior against each other when paired. […] The clinical correlation of this test indicates tranquillizing and anxiolytic activities as well as antiaggressive properties as such (R. L. Duncan et al., J. Med. Chem. 13, 1 (1970)).
This type of aggression is interesting because it is known that this kind of emotional behaviour might be located in limbic structures in the brain (P. D. Mac Lean, Psychosom. Med. 11, 338 (1949)).
Every week 24 male NMR mice, weighing 20-22 g, were isolated in Makrolon cages for three weeks with diet and water ad libitum. A piece of cardboard was placed between the cages to prevent visual contact.
To test aggressiveness the mice were paired in a neutral area, a beaker (14 cm high and diameter 14 cm). A pair is considered aggressive if both the animals show clear signs of fighting within 5 min. This fighting is characterized by biting and vocalization. As soon as fighting is seen, the mice are separated and brought to their home cage. […] Animals showing no aggression are discarded. […] The test substance is administered s.c. (0.2-0.4 ml/20 g). The mice are paired 1/2 h, 1 h, 2 h, 4 h, 6 h and 24 h after the injection for trials of 5 min. duration.
The ED50 -value (mg/kg) reported is the dose inhibiting aggressive behaviour among 50 percent of the pairs 1.0 hour after drug administration.

pigs = test: Social parameters and aggression of pigs in stress situations; format: in vivo, pig; settings: in words; for stabilization of social parameters: aggression, hierarchy, interaction, cleanliness, feeding behaviour; for effect on aggression: stress situations
Source text: Among domestic animals pigs are exposed to a wide variety of stresses, e.g. after weaning, at transports and at regrouping of animals. By studying social parameters such as aggression, hierarchy, interaction, cleanliness in their living space and feeding behaviour in different stress situations the new compounds of formula I have been compared with established drugs, e.g. azaperone and acepromazine, now used in handling pigs.

[5] = tested on: guinea pig papillary muscle; settings: cited from earlier work
central 5HT receptors = settings: established antidepressant drugs; in words; cited from earlier work
gastric ulcers in rats = test: Stress-induced ulcers (restraint and cold); format: in vivo, rat (female Sprague Dawley); settings: 15 min before cold and restraint
Source text: A number of methods have been described for studies of somatic expression of adverse stimulation in experimental animals. One method is based upon the development of gastric lesions in rat subjected to some form of environmental stress. The most frequently used mode of stressing the rats is by simple physical restraint. In the experiments to be described rats were immobilized in rigid plastic devices. As repeatedly shown the restraint and the exposure to cold, act synergistically to produce gastric ulcers. The method for production of stress ulcus in rats has been described earlier (R. J. Levine In: C. J. Pfeiffer ed., Peptic Ulcer, Scand. Univ. Books, Copenhagen 1971). The animals in the experiments, female Sprague Dawley rats 180-230 g, have been kept immobilized for three hours at +5° C. For 24 hours prior to restraint the animals furthermore were not allowed to ingest anything but tap water. In all experiments the rats were divided in three groups. In the first group all animals were pre-treated only with saline 15 min. before the exposure to the stressors. […] The third group consisted always of the compound to be tested in this model. The number and severity of gastric erosions in the opened stomach of controls and drug-pre-treated animals were scored. The average number of gastric ulcers in the control rats were put equal to a hundred percent. In table VI the potency of some compounds to protect against gastric ulcers in the described experiments is reported. All pre-treatments were always made 15 min. before the exposure to cold and restraint.

thymus = test: Swim-test (stress-induced thymolymphatic involution); format: in vivo, mouse (NMRI female); settings: for protecting capacity against the induced stress: in words; for Relative weight of thymus, ×100: once 10 min before first swim-test, saline stressed 36, unstressed 66, Wilcoxon's ranking test
Source text: If an animal is in a stage of exhaustion the rise in glucocorticoids induced by the stress causes thymolymphatic involution and elicites a characteristic change in blood count. […] In the experiments NMRI female mice were used with well-documented thymic glands. In the experiments the mice were divided in four groups. In the first group the mice were allowed to stay in their home cages all the time. In the second group saline-treated mice were repeatedly forced to swim in water at a temperature of +5° C. for 1 min. once every hour, 6 times per day for four days. In the third group the mice were pre-treated once with the test compound 10 min. before the first swim-test, otherwise the mice were manipulated in the same way as in the second group. In the fourth group the mice were adrenalectomized three days before the start of the swim tests. Otherwise also this group was manipulated as the second group. All mice were killed on the 5th day of the experiment and the weight of the thymic gland registered.

[6] = tested on: isolation-induced aggressive behaviour of male mice; settings: background on clinically used drugs; in words; cited from earlier work
Geller conflict test = format: in vivo; settings: s.c., ** (Student's t-test)
Source text: The Geller conflict test for anxiolytics clearly meets the requirements for a standard model and is most useful operant paradigm in screening for new drugs. (I. Geller and J. Seifler, Psychopharmacologia l, 482 (1960); B. Blackwell and W. E. Whitehead, In: A. Sudilovsky, S. Gershorn and B. Beer, eds. Predictability in Psychopharmacology: Preclinical and Clinical Correlations. Raven Press New York pp. 121, (1975)).

[7] = tested on: guinea pig papillary muscle; test: Prolongation of effective refractory period in guinea pig papillary muscle; settings: 10^-7 M; pacing frequencies 1, 2 and 4 Hz
[8] = read-out: ED50, mg/kg, s.c., 2 hrs after injection
[9] = 1 hr after injection, read-out: ED50, mg/kg, s.c., 1 hr
[10] = 1.0 hour after drug administration

CNC(=O)N1C[C@H](C)N(CCCC(c2ccc(F)cc2)c2ccc(F)cc2)C[C@H]1C (relative stereo) [III, trans-2,5-Dimethyl-N'-methyl-4-[4,4-(di-p-fluorophenyl)butyl]-1-piperazinecarboxamide]
ED50 [1, 8]: 2.9 mg/kg | ED50 [1, 9]: 1.9 mg/kg | ED50 ([2]; 0.5 h after administration): 1 mg/kg | ED50 [3]: 1 mg/kg | ED50 [4, 10]: 2.6 mg/kg

CC(=O)c1ccc2c(c1)N(CCCN(C)C)c1ccccc1S2 [Acepromazine]
stabilization of social parameters (pigs): did not improve any social parameter | effect on aggression (pigs): blocked aggression by an unspecific mechanism of sedation

CCCCc1oc2ccccc2c1C(=O)c1cc(I)c(OCCN(CC)CC)c(I)c1 [Amiodarone]
change of the effective refractory period ([5]; 10^-5 M): 35 ms

CN(C)CCC=C1c2ccccc2CCc2ccccc21 [Amitriptyline, reference compound]
blockade of central 5HT receptors (central 5HT receptors): potent blockers | ED50 [1, 8]: 6.4 mg/kg | ED50 [1, 9]: > 10 mg/kg | ED50 [4, 10]: 5 mg/kg

O=C(CCCN1CCN(c2ccccn2)CC1)c1ccc(F)cc1 [Azaperone]
Inhibition, % (gastric ulcers) (gastric ulcers in rats; pre-treatment dose 1.0 mg/kg): 0% | stabilization of social parameters (pigs): did not improve any social parameter | effect on aggression (pigs): blocked aggression by an unspecific mechanism of sedation | protecting capacity against the induced stress (thymus): less effective | Relative weight of thymus, ×100 (thymus; pre-treatment dose 1.0 mg/kg): 48

CN(C)CCCN1c2ccccc2Sc2ccc(Cl)cc21 [Chlorpromazine, reference compound]
ED50 ([2]; 0.5 h): 2 mg/kg | ED50 ([4]; 1 h): 1.4 mg/kg

CN1C(=O)CN=C(c2ccccc2)c2cc(Cl)ccc21 [Diazepam, reference compound]
effect on isolation-induced aggressive behaviour [6]: active | Percent shocks compared to controls (Geller conflict test; dose 1.0 mg/kg): 240%

O=C(CCCN1CCC(O)(c2ccc(Cl)cc2)CC1)c1ccc(F)cc1 [Haloperidol, reference compound]
ED50 ([2]; 0.5 h): 1.3 mg/kg

CNC(=O)N1CCN(CCCC(c2ccc(F)cc2)c2ccc(F)cc2)CC1 [I, N'-Methyl-4-[4,4-(di-p-fluorophenyl)butyl]-1-piperazinecarboxamide]
ED50 [1, 8]: 0.7 mg/kg | ED50 [1, 9]: 0.5 mg/kg | ED50 ([2]; 0.5 h after administration): 1.5 mg/kg | ED50 [3]: 0.5 mg/kg | ED50 [4, 10]: 4.8 mg/kg

CCNC(=O)N1CCN(CCCC(c2ccc(F)cc2)c2ccc(F)cc2)CC1 [II, N'-Ethyl-4-[4,4-(di-p-fluorophenyl)butyl]-1-piperazinecarboxamide]
prolongation of the effective refractory period [7]: 30 ms | Inhibition, % (gastric ulcers) (gastric ulcers in rats; pre-treatment dose 1.0 mg/kg): 43% | ED50 [1, 8]: 1.9 mg/kg | ED50 [1, 9]: 0.4 mg/kg | ED50 ([2]; 0.5 h after administration): 0.7 mg/kg | protecting capacity against the induced stress (thymus): most protecting capacity | Relative weight of thymus, ×100 (thymus; pre-treatment dose 1.0 mg/kg): 50 | Percent shocks compared to controls (Geller conflict test; dose 0.5 mg/kg): 250% | ED50 [3]: 0.7 mg/kg | ED50 [4, 10]: 1.3 mg/kg

CNC(=S)N1CCN(CCCC(c2ccc(F)cc2)c2ccc(F)cc2)CC1 [IV, N'-Methyl-4-[4,4-(di-p-fluorophenyl)butyl]-1-piperazinecarbothioamide]
ED50 [1, 8]: 0.1 mg/kg | ED50 [1, 9]: 0.1 mg/kg | ED50 ([2]; 0.5 h after administration): 5.1 mg/kg | ED50 [3]: 1.4 mg/kg | ED50 [4, 10]: 2 mg/kg

CCN(CC)CC(=O)Nc1c(C)cccc1C [Lidocain]
change of the effective refractory period ([5]; 10^-7 M): 20 ms

CN1CCN2c3ccccc3Cc3ccccc3C2C1 (stereo not drawn) [Mianserin]
blockade of central 5HT receptors (central 5HT receptors): potent blockers

CN1CC[C@]23c4c5ccc(O)c4O[C@H]2[C@@H](O)C=C[C@H]3[C@H]1C5 [Morphine]
Inhibition, % (gastric ulcers) (gastric ulcers in rats; pre-treatment dose 2.0 mg/kg): 67%

CC(C)NCC(O)COc1cccc2ccccc12 (stereo not drawn) [Propranolol]
protecting capacity against the induced stress (thymus): less effective | Relative weight of thymus, ×100 (thymus; pre-treatment dose 10.0 mg/kg): 48

C=C[C@H]1C[N@@]2CC[C@H]1C[C@@H]2[C@@H](O)c1ccnc2ccc(OC)cc12 [Quinidine]
change of the effective refractory period ([5]; 10^-6 M): 14 ms
